Test results as given in a melting point compilation (Tetko et al.; mined from patent text by program, amines drawn as free bases though some values may be those of a salt).

First: O=C(CS(=O)Cc1ccco1)NCCCOc1cccc(C2OCCO2)c1 (configuration not stated)
Second: O=C(CCCCCCOc1ccc(OCc2ccccc2)cc1)C(F)(F)F
The melting point of the first is higher: 95.3 to 96.1 °C for the first, 82 to 83 °C for the second.

Compared with `Cn1c(=O)cc(-c2cccc(Cl)c2)c2cc(C(O)(c3ccc(Cl)cc3)c3cnccc3N)ccc21` (configuration not stated), `CCC(=O)Nc1cc(-c2c(-c3ccc(Cl)cc3)nc3cccnn23)ccn1` is lower in melting point: 262 °C for the first, 204 to 205 °C for the second.

First: C(#Cc1ccccn1)CCc1nc2ccccc2s1
Second: c1ccc(CN2CCC(Oc3ccccn3)CC2)cc1
The melting point of the first is higher: 98.5 to 99.4 °C for the first, 75 °C for the second.

First: CC(C)Oc1ccc(C(=O)O)c(Cl)n1
Second: CCOC(=O)C(C=O)c1ccc(Cl)cc1 (configuration not stated)
The melting point of the first is higher: 173 to 174 °C for the first, 50 °C for the second.

First: O=C1N(Cc2nnc(Cl)s2)c2ccccc2C12COc1cc3c(cc12)OCO3 (configuration not stated)
Second: CN1C(=O)C(F)N=C(c2ccccc2F)c2cc(Cl)ccc21 (configuration not stated)
The melting point of the first is higher: 194 to 197 °C for the first, 91 to 95 °C for the second.

First: Cc1ccc(C2=Nc3ccccc3N=C(N3CCN(C)CC3)C2)cc1
Second: COc1nc2cc(Cl)ccc2nc1N1CCN(C)CC1
The melting point of the first is higher: 169 to 170 °C for the first, 99.9 to 102 °C for the second.

`C#Cc1cccc(Nc2ncnc3ccc(S(=O)(=O)n4ccc(C=CC(=O)O)c4)cc23)c1` and `O=C(Nc1cccc2c(Cn3ccnc3)ccnc12)c1c(Cl)cccc1Cl` cannot be ordered by melting point: 286 to 289 °C for the first, over 250 °C for the second.

Compared with `O=C(O)c1ccc(S(=O)(=O)Oc2ccc(-c3ccc(-c4c(Cc5ccccc5)oc5ccccc45)cc3)cc2)cc1`, `Cc1oc(-c2ccccc2)nc1CC#Cc1ccc(CC(C(=O)O)c2cccc(-c3ccccc3)c2)cc1` (configuration not stated) is lower in melting point: 186 to 188 °C for the first, 105 to 107 °C for the second.

First: CC=C(C#N)c1cccnc1
Second: C#CCC(c1ccc(Cl)cc1Cl)C(O)(C(C)=O)c1cccnc1 (configuration not stated)
The melting point of the first is lower: 46 to 47 °C for the first, 132 °C for the second.

Compared with `CC(C)[C@](C)(S)C(=O)O`, `C#CC(C)NC(=O)CCCCl` (configuration not stated) is lower in melting point: 78 to 80 °C for the first, 50 to 51 °C for the second.

First: N#Cc1ccc2c(c1)NC(=O)C2c1ncnc2c1cnn2C1CCCC1 (configuration not stated)
Second: CCc1[nH]n(C2CCCC2)c2nc(Cc3ccc(C(F)(F)F)cc3)nc(=O)c1-2
The melting point of the first is higher: 335 to 338 °C for the first, 212 to 213 °C for the second.

First: COc1ccc(Nc2cccc(Cl)c2N)cc1
Second: COC(=O)Cc1cc(OCc2ccc3ccccc3n2)ccc1Nc1ccccc1
The melting point of the first is lower: 65 to 66 °C for the first, 106 to 107 °C for the second.

First: CCC1(C)CC(=O)C(C(=O)Nc2cccc(C(F)(F)F)c2)C(=O)C1 (configuration not stated)
Second: CC(C)c1cnc(NC(=O)Nc2cccc(I)c2)s1
The melting point of the first is lower: 81 to 82 °C for the first, 90 to 92 °C for the second.

First: CCc1c2c(nc3cc(F)c(OC)cc13)-c1cc3c(c(=O)n1C2)COC(=O)CC3(O)CC (configuration not stated)
Second: CCOC(=O)c1cn(-c2nc(NC(C)C)c(F)cc2F)c2c(Cl)c(F)c(F)cc2c1=O
The melting point of the first is higher: over 275 °C for the first, 206 to 209 °C for the second.

First: CN1C2CCC1[C@H](CO)[C@@H](c1cccs1)C2 (some centres not stated)
Second: COc1ccc(C(=O)C2CCC(CCO)CC2)cc1O (configuration not stated)
The melting point of the first is higher: 154 to 158 °C for the first, 107 to 109 °C for the second.

First: O=c1[nH]c(=S)[nH]cc1Cc1cnc2ccccc2c1
Second: Cc1nccc2c1[nH]c1cc(OCc3ccccc3)ccc12
The melting point of the first is higher: 290 to 292 °C for the first, 212 °C for the second.

First: CN1c2ccccc2C(c2ccccc2F)=Nc2cccnc21
Second: O=C1c2ccccc2O[C@@H](c2ccccc2)[C@@H]1n1ccnc1 (relative stereo)
The melting point of the first is lower: 140 to 142 °C for the first, 199 to 203 °C for the second.

First: CCC1OCCn2c1nc(C(=O)NCc1ccc(F)cc1-n1cncn1)c(OCc1ccccc1)c2=O (configuration not stated)
Second: CN1C(=O)CN(C(=O)CNC(=O)OCc2ccccc2)C(c2ccccc2)c2cc(Cl)ccc21 (configuration not stated)
The melting point of the first is lower: 155 to 157 °C for the first, 158 to 160 °C for the second.

First: CN(C(=O)Nc1ccccc1C=Cc1cc(C(C)(C)C)c(O)c(C(C)(C)C)c1)C1CCN(Cc2ccc(F)cc2)CC1
Second: CC(O)c1cc2c(OCC(O)CN3CCC(c4ccc5ccccc5c4)CC3)cccc2o1 (configuration not stated)
The melting point of the first is higher: 174 to 175 °C for the first, 143 to 144 °C for the second.

First: CCC(C)(CC)C1=NN=C(NC(=O)c2c(OC)cccc2OC)SC1
Second: COc1cc(-c2nc(-c3ccc(N(C)C)cc3)c(C)[nH]2)cc(OC)c1OP(=O)(O)O
The melting point of the first is lower: 134 to 140 °C for the first, 196 to 198 °C for the second.

First: CCCCC(=O)N[C@H]1CC[C@H](CCN2CCN(c3nccc4c3OCC4)CC2)CC1
Second: C=CCNC(=O)CN1CCN(Cc2ccc3c(c2)NC(=O)C(C)O3)CC1 (configuration not stated)
The melting point of the first is higher: 168 °C for the first, 151 to 158 °C for the second.

First: COc1ccc(C(=O)Nc2ccc(CN3C(=O)[C@H]4CCC[C@H]4N(C(=O)CN4C(=O)c5ccccc5C4=O)c4ccccc43)cc2)cc1 (relative stereo)
Second: COc1ccc(N2CCN(Cc3ccc(NC(=O)/C=C/c4cccc(-c5ccc(C)cc5)c4)cc3)CC2)cc1
The melting point of the first is lower: 170 to 173 °C for the first, 207 to 208 °C for the second.

Compared with `O=C1NC(=O)c2ccc(-c3ccc(CN4CCCCC4)cc3)cc2C1=CNc1ccc(CN2CCCCC2)cc1`, `O=C(O)/C=C/c1ccc(C(=C2CCCCCC2)c2ccc(O)c(F)c2)cc1` is higher in melting point: 159 to 160 °C for the first, 164 to 165 °C for the second.

First: CCOCc1nc2c(N)nc3ccccc3c2n1Cc1cc(-c2ccc(F)cc2)no1
Second: O=CNc1[nH]c(-c2ccc(F)cc2)nc1-c1ccccc1
The melting point of the first is lower: 203 to 204 °C for the first, 245 to 247 °C for the second.

First: COc1cc2c(cc1O)CCN(Cc1cc(OC)c(OC)cc1OC)C2
Second: COc1cc(C=O)ccc1OCc1csc(N2CCCCC2)n1
The melting point of the first is higher: 152 to 153 °C for the first, 129 to 130 °C for the second.

First: COC(=O)c1cc(NC=O)ccn1
Second: COC(=O)CC(=O)c1cnccn1
The melting point of the first is higher: 185 to 186 °C for the first, 109 to 110 °C for the second.

First: N#CC(=NOCF)C(N)=O
Second: C#CCn1ccc(C(=O)OC)c1C=O
The melting point of the first is higher: 124 to 125 °C for the first, 76 °C for the second.

Compared with `CC(=Cc1ccc(-c2ccc(Cl)cc2)cc1)[N+](=O)[O-]`, `O=C(O)c1ccc(Cl)c(S(=O)(=O)c2ccccc2[N+](=O)[O-])c1` is higher in melting point: 114 °C for the first, 242 to 246 °C for the second.

First: CS(=O)(=O)OCCc1ccc(NC(=O)OCc2ccccc2)cc1CCOS(C)(=O)=O
Second: CC(=O)c1ccc(OCc2ccsc2)cc1OC(CCc1ccccc1C#N)C(=O)O (configuration not stated)
The melting point of the first is lower: 58 to 60 °C for the first, 132 to 134 °C for the second.

Compared with `CCC(C)(O/N=C(\C(=O)O)c1csc(NC(c2ccccc2)(c2ccccc2)c2ccccc2)n1)C(=O)OC(C)(C)C` (configuration not stated), `CC(C)(C)OC(=O)NC(Cc1ccccc1)C(O)CNCC(O)C(Cc1ccccc1)NC(=O)C1c2ccccc2CN1C=O` (configuration not stated) is higher in melting point: 163 to 164 °C for the first, 174 to 176 °C for the second.

First: O=S(=O)(F)c1ccccc1S(=O)(=O)N1CCC1
Second: CCOC(=O)c1ccccc1S(N)(=O)=O
The melting point of the first is lower: 93 °C for the first, 122 to 124 °C for the second.

Compared with `CC(C)(C)OC(=O)c1ncn2c1[C@@H]1CCCN1C(=O)c1c-2cccc1[N+](=O)[O-]`, `CCCc1nc2c(N)nc3cc(OCCC4CCN(C(=O)OC(C)(C)C)CC4)ccc3c2n1CC(C)C` is lower in melting point: 231 to 233 °C for the first, 196 to 200 °C for the second.

Compared with `COc1cc(OC)nc(-n2nc(C)oc2=O)n1`, `C#CCOc1cnc(C2=NC(C)(C(C)C)C(=O)N2)c(C(=O)OC)c1` (configuration not stated) is lower in melting point: 158 °C for the first, 83 to 84 °C for the second.

First: OCc1ccc2cccc(Br)c2c1
Second: Nc1nccc2cc(O)ccc12
The melting point of the first is lower: 110 to 111 °C for the first, 258 to 260 °C for the second.

Compared with `CCN1CCC2(c3cccc(OC)c3)Cc3[nH]c(C(N)=O)c(C)c3CC2C1` (configuration not stated), `COC(=O)COc1cc2c(c(Cl)c1Cl)C(=O)C(CC#C[Si](C)(C)C)(c1ccccc1)C2` (configuration not stated) is lower in melting point: 176 to 178 °C for the first, 126 to 127 °C for the second.

First: CC(=O)c1cn(S(=O)(=O)c2ccccc2)c2nccc(Cl)c12
Second: CS(=O)(=O)c1ccc([C@@H](CC2CCCC2)C(=O)Nc2nc3ccccc3[nH]2)cc1
The melting point of the first is lower: 160 to 162 °C for the first, 230 to 232 °C for the second.

First: COc1ccc2cc(C=CC(C)OC(C)=O)ccc2c1 (configuration not stated)
Second: CCOc1cc(C=O)ccc1OCc1nc(-c2ccco2)oc1C
The melting point of the first is lower: 78 to 80 °C for the first, 159 to 160 °C for the second.

Compared with `CC(=O)CCc1c(OC(C)=O)cc(C(C)C)c(OC(C)=O)c1C(C)C`, `COC(=O)CC/C(C)=C/Cc1c(N)c2c(c(C)c1OC)COC2=O` is lower in melting point: 108 to 112 °C for the first, 91 to 93 °C for the second.

Compared with `CCSCCn1c(=N)sc2cc(C(F)(F)C(F)(F)F)ccc21`, `COC(=O)CCC(=O)c1ccc2c(c1)CNC(=O)N2C` is higher in melting point: under 50 °C for the first, 165 to 175 °C for the second.

First: CS(=O)(=O)OCCNc1cc(Cl)ccc1[N+](=O)[O-]
Second: CC(C)(C)c1cc(O)c(N)c([N+](=O)[O-])c1
The melting point of the first is lower: 101 to 102 °C for the first, 180 to 181 °C for the second.

First: CC(=NNc1ccc(C2=NNC(=O)CC2C)cc1)c1cnsn1 (configuration not stated)
Second: Cn1cc(Br)cc(Nc2ccc(C3CNC3)cn2)c1=O
The melting point of the first is higher: 241 to 245 °C for the first, 123 to 124 °C for the second.

First: C=Cc1c(F)c(F)cc2c(=O)c(C(=O)OCC)cn(C3CC3)c12
Second: CCOC(=O)C(C)(C)n1c(=O)[nH]c2cc(F)c(F)cc2c1=O
The melting point of the first is higher: 178 to 179 °C for the first, 166 to 168 °C for the second.

Compared with `Oc1ccc2oc(-c3ccc(O)c(Cl)c3)nc2c1`, `COC12C=CC(CC1)C1=C2C(=O)c2c(O)ccc(O)c2C1=O` (configuration not stated) is lower in melting point: 254 to 256 °C for the first, 239 to 241 °C for the second.

First: NC(C(=O)c1ccccc1)[N+](=O)[O-] (configuration not stated)
Second: Cc1ccc(C(=O)NC(Cc2cccc(Br)c2)C(=O)O)cc1 (configuration not stated)
The melting point of the first is lower: 110 to 111 °C for the first, 196 to 197 °C for the second.

First: Nc1nc(Cl)cc(NCCCCO)n1
Second: C=CCNc1nc(NCCOC)nc2c(C)csc12
The melting point of the first is higher: 110 to 112 °C for the first, 87 to 88 °C for the second.

First: c1ccc(COc2cc3cc(-c4ccccc4)[nH]c3cc2OCc2ccccc2)cc1
Second: CN1CC(N2CCc3ccccc3C2)ON=C1CC(c1ccccc1)c1ccccc1 (configuration not stated)
The melting point of the first is lower: 140 to 141 °C for the first, 163 °C for the second.

First: CCS(=O)c1cc2c(c3c1OC(C)(C)C3)C(c1ccccc1)=NC(C)(C)C2 (configuration not stated)
Second: O=c1oc(-c2ccccc2)cc(O)c1C(CC1CC1)SC1CCCC1 (configuration not stated)
The melting point of the first is higher: 146 to 147 °C for the first, 75 to 80 °C for the second.

Compared with `N#CN=c1ccccn1C1=CC(CF)(CF)Oc2ccc([N+](=O)[O-])cc21`, `Cc1cc2ccccc2n2c(S)nnc12` is higher in melting point: 238 to 240 °C for the first, 268 °C for the second.

Compared with `COC(=O)c1ccc(C)c(-n2c(C)cc(OCc3ccccc3CNC(=O)Nc3cc(C(C)(C)C)nn3-c3ccc(O)c(Cl)c3)c(Cl)c2=O)c1`, `O=c1[nH]c2ccccc2c2c(CCC3CCNCC3)n(-c3ccccc3)nc12` is higher in melting point: 185 to 186 °C for the first, 250 to 252 °C for the second.

First: OCc1nccc(N2CCOCC2)c1Cl
Second: NNC(=O)c1cnc2n(c1=O)CCC2
The melting point of the first is lower: 80 to 82 °C for the first, 180 to 181 °C for the second.

First: Nc1ncnc2c1ncn2C1CC(O)C2CC21 (configuration not stated)
Second: Cc1ccc(S(=O)(=O)N2CC2CBr)cc1 (configuration not stated)
The melting point of the first is higher: 259 to 261 °C for the first, 75 to 78 °C for the second.
